Test results published in patent US6974574B2, “Methods of inducing an HIV specific response using a Vpr-specific epitope” (The General Hospital Corporation, priority 2001, dated 2005).
Where “and” joins values, the source holds several entries; their conditions need not be identical. Equal entries are not always repeated.

How the values were obtained:
HIV = experiment: Level of CTL immune response elicited by peptide immunogen
[1] = tested on: PBMC (CD8+ T cells) of HIV-1 infected individuals; experiment: IFN-γ Elispot assay with PBMC and synthetic HIV-1 peptides; format: cell-based, human
Experimental: Peptides were added directly to the wells at a final concentration of 1×10^−5 molar. Cells were added to the wells at 50,000 to 100,000 cells per well. The plates were incubated at 37° C., 5% CO2 overnight (14-16 h) and then processed as described. IFN-γ producing cells were counted by direct visualization and are expressed as spot forming cells (SFC) per 10^6 cells. The number of specific IFN-γ secreting T-cells was calculated by subtracting the negative control value from the established SFC count. […] Responses ≧40 SFC per 10^6 input cells above background were considered positive. The positive control consisted of incubation of 100,000 PBMC with phytohaemagglutinin (PHA). […] Fine mapping of epitopes by Elispot assay was performed, using peptide truncations (e.g., as described in Altfield et al., 2000, J. Virol. 74:8541). 100,000 PBMC per well were incubated with concentrations from 10^−4 M to 10^−11 M of peptide overnight on the Elispot plate. All assays were run in duplicate. The optimal peptide was defined as the peptide that induced 50% maximal specific IFN-γ production of T-cells at the lowest peptide concentration.

CD8+ T cells = experiment: Flow cytometric detection of antigen-induced intracellular IFN-γ; format: cell-based, human; conditions: subject AC-06
Experimental: CD8+ T cells were non-specifically expanded from PBMC over 10 days, using a bi-specific […]. Peptide-specific CD8+ T cell lines were subsequently isolated using a standard IFN-γ catching assay. After expansion 10-20×10^6 CD8+ T cells were incubated on 24-well-plates with 20 μM peptide and 1 ug/ml each of the mAbs anti-CD28 and anti-CD49d (Becton Dickinson) at 37° C., 5% CO2, for 6-8 hour. Cell were subsequently labeled with a bi-specific CD45/IFN-γ catching antibody and incubated for 45 min at 37° C., 5% CO2. After several washes, the IFN-γ producing cells were stained with a second IFN-γ-PE detection antibody and separated by anti-PE mAb labeled with magnetic beads (MACS, Miltenyi Biotech, Hamburg, Germany). The isolated cells were then expanded for 10 days using autologous irradiated feeders.
Intracellular cytokine staining assays were performed using known methods, e.g.,described by Pitcher et al., 1999, Nature Medicine 5:518 or Goulder et al, 2000, J. Exp. Med. 192:1819). […] Cells were then washed and analyzed on a FACSort Flowcytometer (Becton Dickinson Immunocytometry systems, San Jose, Calif.) using peridinin chlorophyl protein (PerCP), allophycocyanin (APC) and fluorescein isothiocyanate (FITC) as fluorescent parameters. […]

**Q.** With “ALIRILQQL (Human immunodeficiency virus type 1)” as the substance, how does the “level of the immune response elicited, compared with SEQ ID NO:1” value (HIV) read?
**A.** at least 1 log

**Q.** What about the “recognition (individuals with the corresponding HLA class I alleles that responded to the epitope)” value (“recognition” for short) [1] of the same substance?
**A.** 8/24

**Q.** How did the “recognition” value [1] turn out when “LADQLIHLHY (Human immunodeficiency virus type 1)” was run?
**A.** 2/5

**Q.** For “HPRVSSEVHI (Human immunodeficiency virus type 1)”, which “recognition” value [1] is on record?
**A.** 3/8

**Q.** For “GPGHKARVL (Human immunodeficiency virus type 1)”, which “contribution to total HIV-1-specific CD8 responses” value (CD8+ T cells) is on record?
**A.** 32%

**Q.** What about the “percentage of CD8+ T cells specific for the epitope, intracellular IFN-γ” value (CD8+ T cells) of the same substance?
**A.** 5.6%

**Q.** How did the “Magnitude of peptide-specific CD8+ T cell responses against Vif overlapping peptides, IFN-γ ELISPOT” value (from here on “Magnitude … IFN-γ ELISPOT”) ([1]; individual 6003) turn out when “THPRVSSEVHIPLG (Human immunodeficiency virus type 1) [vif-10]” was run?
**A.** 0 SFC/10^6 PMBC

**Q.** What about the “Magnitude … IFN-γ ELISPOT” value ([1]; individual 6007) of the same substance?
**A.** 0 SFC/10^6 PMBC

**Q.** What about the “Magnitude … IFN-γ ELISPOT” value ([1]; individual 6009) of the same substance?
**A.** 40 SFC/10^6 PMBC

**Q.** What about the “Magnitude … IFN-γ ELISPOT” value ([1]; individual AC-01) of the same substance?
**A.** 0 SFC/10^6 PMBC

**Q.** What about the “Magnitude … IFN-γ ELISPOT” value ([1]; individual AC-04) of the same substance?
**A.** 0 SFC/10^6 PMBC

**Q.** What about the “Magnitude … IFN-γ ELISPOT” value ([1]; individual AC-06) of the same substance?
**A.** 11800 SFC/10^6 PMBC

**Q.** And the “magnitude of CTL response by Elispot” value ([1]; individual AC-06, text)?
**A.** 1180 SFC/10^6 PBMC

**Q.** And the “Magnitude … IFN-γ ELISPOT” value ([1]; individual AC-07)?
**A.** 0 SFC/10^6 PMBC

**Q.** What about the “Magnitude … IFN-γ ELISPOT” value ([1]; individual AC-13) of the same substance?
**A.** 0 SFC/10^6 PMBC

**Q.** What about the “Magnitude … IFN-γ ELISPOT” value ([1]; individual AC-27) of the same substance?
**A.** 0 SFC/10^6 PMBC

**Q.** And the “Magnitude … IFN-γ ELISPOT” value ([1]; individual AC-31)?
**A.** 0 SFC/10^6 PMBC

**Q.** What about the “Magnitude … IFN-γ ELISPOT” value ([1]; individual AC-36) of the same substance?
**A.** 0 SFC/10^6 PMBC

**Q.** And the “Magnitude … IFN-γ ELISPOT” value ([1]; individual AC-42)?
**A.** 0 SFC/10^6 PMBC

**Q.** What about the “Magnitude … IFN-γ ELISPOT” value ([1]; individual AC-43) of the same substance?
**A.** 0 SFC/10^6 PMBC

**Q.** What about the “Magnitude … IFN-γ ELISPOT” value ([1]; individual AC-46) of the same substance?
**A.** 0 SFC/10^6 PMBC

**Q.** And the “Magnitude … IFN-γ ELISPOT” value ([1]; individual AC-59)?
**A.** 840 SFC/10^6 PMBC

**Q.** And the “Magnitude … IFN-γ ELISPOT” value ([1]; individual AC-TZA)?
**A.** 0 SFC/10^6 PMBC

**Q.** And the “Magnitude … IFN-γ ELISPOT” value ([1]; individual CMW)?
**A.** 0 SFC/10^6 PMBC

**Q.** And the “Magnitude … IFN-γ ELISPOT” value ([1]; individual JMV)?
**A.** 0 SFC/10^6 PMBC

**Q.** What about the “Magnitude … IFN-γ ELISPOT” value ([1]; individual JRH) of the same substance?
**A.** 0 SFC/10^6 PMBC

**Q.** And the “Magnitude … IFN-γ ELISPOT” value ([1]; individual TMH#4)?
**A.** 0 SFC/10^6 PMBC

**Q.** For “RIRTWKSLVK (Human immunodeficiency virus type 1)”, which “recognition” value [1] is on record?
**A.** 3/15

**Q.** With AVRHFPRIW as the substance, how does the “recognition” value [1] read?
**A.** 4/6

**Q.** For “REPHNEWTL (Human immunodeficiency virus type 1)”, which “recognition” value [1] is on record?
**A.** 1/1

**Q.** “ISKKAKGWF (Human immunodeficiency virus type 1)” was tested. Which “recognition” value [1] did it give?
**A.** 2/6

**Q.** Which “Magnitude … IFN-γ ELISPOT” value ([1]; individual 6003) does the source give for “vif-3: overlapping peptide (12-18mer) spanning the HIV-1 SF2 B clade Vif sequence (RIRTWKSLVK; Human immunodeficiency virus type 1)” here?
**A.** 0 SFC/10^6 PMBC

**Q.** And the “Magnitude … IFN-γ ELISPOT” value ([1]; individual 6007)?
**A.** 0 SFC/10^6 PMBC

**Q.** What about the “Magnitude … IFN-γ ELISPOT” value ([1]; individual 6009) of the same substance?
**A.** 290 SFC/10^6 PMBC

**Q.** What about the “Magnitude … IFN-γ ELISPOT” value ([1]; individual AC-01) of the same substance?
**A.** 0 SFC/10^6 PMBC

**Q.** And the “Magnitude … IFN-γ ELISPOT” value ([1]; individual AC-04)?
**A.** 0 SFC/10^6 PMBC

**Q.** And the “Magnitude … IFN-γ ELISPOT” value ([1]; individual AC-06)?
**A.** 680 SFC/10^6 PMBC

**Q.** And the “Magnitude … IFN-γ ELISPOT” value ([1]; individual AC-07)?
**A.** 0 SFC/10^6 PMBC

**Q.** And the “Magnitude … IFN-γ ELISPOT” value ([1]; individual AC-13)?
**A.** 0 SFC/10^6 PMBC

**Q.** And the “Magnitude … IFN-γ ELISPOT” value ([1]; individual AC-27)?
**A.** 0 SFC/10^6 PMBC

**Q.** What about the “Magnitude … IFN-γ ELISPOT” value ([1]; individual AC-31) of the same substance?
**A.** 0 SFC/10^6 PMBC

**Q.** What about the “Magnitude … IFN-γ ELISPOT” value ([1]; individual AC-36) of the same substance?
**A.** 0 SFC/10^6 PMBC

**Q.** What about the “Magnitude … IFN-γ ELISPOT” value ([1]; individual AC-42) of the same substance?
**A.** 0 SFC/10^6 PMBC

**Q.** And the “Magnitude … IFN-γ ELISPOT” value ([1]; individual AC-43)?
**A.** 0 SFC/10^6 PMBC

**Q.** What about the “Magnitude … IFN-γ ELISPOT” value ([1]; individual AC-46) of the same substance?
**A.** 0 SFC/10^6 PMBC

**Q.** What about the “Magnitude … IFN-γ ELISPOT” value ([1]; individual AC-59) of the same substance?
**A.** 0 SFC/10^6 PMBC

**Q.** What about the “Magnitude … IFN-γ ELISPOT” value ([1]; individual AC-TZA) of the same substance?
**A.** 0 SFC/10^6 PMBC

**Q.** And the “Magnitude … IFN-γ ELISPOT” value ([1]; individual CMW)?
**A.** 0 SFC/10^6 PMBC

**Q.** And the “Magnitude … IFN-γ ELISPOT” value ([1]; individual JMV)?
**A.** 0 SFC/10^6 PMBC

**Q.** And the “Magnitude … IFN-γ ELISPOT” value ([1]; individual JRH)?
**A.** 430 SFC/10^6 PMBC

**Q.** And the “Magnitude … IFN-γ ELISPOT” value ([1]; individual TMH#4)?
**A.** 0 SFC/10^6 PMBC

**Q.** “FPRIWLHGL (Human immunodeficiency virus type 1)” was tested. Which “recognition” value [1] did it give?
**A.** 2/2 and 4/8

**Q.** What about the “individuals expressing the HLA allele that targeted the epitope” value ([1]; AL9: HLA-A2, FL9: HLA-B7) of the same substance?
**A.** 4/8
